The text below walks through data of ChEMBL document CHEMBL1137403, “Discovery of 2-[4-{{2-(2S,5R)-2-cyano-5-ethynyl-1-pyrrolidinyl]-2-oxoethyl]amino]- 4-methyl-1-piperidinyl]-4-pyridinecarboxylic acid (ABT-279): a very potent, selective, effective, and well-tolerated inhibitor of dipeptidyl peptidase-IV, useful for the treatment of diabetes” (J Med Chem, 2006).

One test has as its target Dipeptidyl peptidase 8 (Homo sapiens, UniProt Q6V1X1).
The next test has as its target Dipeptidyl peptidase 9 (Homo sapiens, UniProt Q86TI2).

Chain of Dipeptidyl peptidase 9 (Q86TI2 whole entry): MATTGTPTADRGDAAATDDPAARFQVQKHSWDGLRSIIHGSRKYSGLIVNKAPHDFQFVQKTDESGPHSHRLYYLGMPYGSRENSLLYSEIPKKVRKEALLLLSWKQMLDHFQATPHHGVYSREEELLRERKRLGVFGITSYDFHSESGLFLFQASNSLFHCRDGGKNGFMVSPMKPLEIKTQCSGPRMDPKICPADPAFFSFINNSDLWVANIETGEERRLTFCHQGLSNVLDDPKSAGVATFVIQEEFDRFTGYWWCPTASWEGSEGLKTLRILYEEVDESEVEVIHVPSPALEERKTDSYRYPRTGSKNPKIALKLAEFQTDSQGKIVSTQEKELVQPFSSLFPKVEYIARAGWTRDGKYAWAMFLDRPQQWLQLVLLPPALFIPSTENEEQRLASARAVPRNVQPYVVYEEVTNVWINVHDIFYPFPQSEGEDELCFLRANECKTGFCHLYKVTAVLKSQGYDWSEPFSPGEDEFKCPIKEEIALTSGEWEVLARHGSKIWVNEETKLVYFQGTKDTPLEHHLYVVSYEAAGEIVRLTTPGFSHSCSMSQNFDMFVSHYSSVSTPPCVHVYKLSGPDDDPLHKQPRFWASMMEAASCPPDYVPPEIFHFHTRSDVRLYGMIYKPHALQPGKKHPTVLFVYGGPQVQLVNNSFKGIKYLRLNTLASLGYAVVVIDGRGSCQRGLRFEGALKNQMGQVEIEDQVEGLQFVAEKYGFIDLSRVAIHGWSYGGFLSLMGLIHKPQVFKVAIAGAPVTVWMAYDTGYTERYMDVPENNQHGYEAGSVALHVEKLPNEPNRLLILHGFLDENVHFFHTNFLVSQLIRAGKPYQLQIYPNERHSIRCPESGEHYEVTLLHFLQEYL
Chain of Dipeptidyl peptidase 8 (Q6V1X1 whole entry): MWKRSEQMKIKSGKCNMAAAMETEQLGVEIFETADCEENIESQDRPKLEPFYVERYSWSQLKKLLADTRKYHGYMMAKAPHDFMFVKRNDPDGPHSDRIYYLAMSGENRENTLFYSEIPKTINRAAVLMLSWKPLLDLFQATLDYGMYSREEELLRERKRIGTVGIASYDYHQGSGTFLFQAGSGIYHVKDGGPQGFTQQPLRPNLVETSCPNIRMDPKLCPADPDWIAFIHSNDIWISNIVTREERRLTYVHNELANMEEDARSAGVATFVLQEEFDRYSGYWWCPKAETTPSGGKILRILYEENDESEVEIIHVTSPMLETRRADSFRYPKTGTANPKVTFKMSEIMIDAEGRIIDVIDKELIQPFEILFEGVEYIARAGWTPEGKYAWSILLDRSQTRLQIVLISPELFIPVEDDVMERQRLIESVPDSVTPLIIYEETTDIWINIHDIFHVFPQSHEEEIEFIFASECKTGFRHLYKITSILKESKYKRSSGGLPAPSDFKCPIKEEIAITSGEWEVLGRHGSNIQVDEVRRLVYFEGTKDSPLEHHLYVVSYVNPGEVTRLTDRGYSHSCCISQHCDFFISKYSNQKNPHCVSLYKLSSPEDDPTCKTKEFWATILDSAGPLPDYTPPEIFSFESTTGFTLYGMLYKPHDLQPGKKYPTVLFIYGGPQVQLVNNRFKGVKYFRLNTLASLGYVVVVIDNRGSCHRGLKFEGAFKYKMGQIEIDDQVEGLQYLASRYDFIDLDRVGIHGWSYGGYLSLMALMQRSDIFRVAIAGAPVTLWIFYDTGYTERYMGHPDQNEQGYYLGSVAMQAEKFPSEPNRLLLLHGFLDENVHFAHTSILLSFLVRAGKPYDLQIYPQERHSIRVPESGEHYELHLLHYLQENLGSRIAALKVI

In general, Ki refers to the dissociation constant of the complex between target and ligand, obtained from inhibition or displacement. Regarding `C#C[C@H]1CC[C@@H](C#N)N1C(=O)CNC1CCCC1`, the Ki at Dipeptidyl peptidase 8 and at Dipeptidyl peptidase 9 was above 30 µM each time.
